Entries after “also recorded” stand apart in the source; their conditions may differ.
How the values were obtained:
MED1 = biological target: T1, MED1 (Homo sapiens, UniProt Q15648); assay: In vitro droplet assay, small molecule partitioning into MED1 condensates; format: binding; conditions: for partitioning / incorporation into MED1 droplets: confocal fluorescence, Example 2: 125 mM NaCl, 10% PEG, 10 μM protein, fluorescent or fluorescently labeled drug
T1 construct: MED1—amino acids 600-1581; 6xHis (N); made in house; host or cells: LOBSTR cells (E. coli)
T1 sequence (Q15648 600-1581): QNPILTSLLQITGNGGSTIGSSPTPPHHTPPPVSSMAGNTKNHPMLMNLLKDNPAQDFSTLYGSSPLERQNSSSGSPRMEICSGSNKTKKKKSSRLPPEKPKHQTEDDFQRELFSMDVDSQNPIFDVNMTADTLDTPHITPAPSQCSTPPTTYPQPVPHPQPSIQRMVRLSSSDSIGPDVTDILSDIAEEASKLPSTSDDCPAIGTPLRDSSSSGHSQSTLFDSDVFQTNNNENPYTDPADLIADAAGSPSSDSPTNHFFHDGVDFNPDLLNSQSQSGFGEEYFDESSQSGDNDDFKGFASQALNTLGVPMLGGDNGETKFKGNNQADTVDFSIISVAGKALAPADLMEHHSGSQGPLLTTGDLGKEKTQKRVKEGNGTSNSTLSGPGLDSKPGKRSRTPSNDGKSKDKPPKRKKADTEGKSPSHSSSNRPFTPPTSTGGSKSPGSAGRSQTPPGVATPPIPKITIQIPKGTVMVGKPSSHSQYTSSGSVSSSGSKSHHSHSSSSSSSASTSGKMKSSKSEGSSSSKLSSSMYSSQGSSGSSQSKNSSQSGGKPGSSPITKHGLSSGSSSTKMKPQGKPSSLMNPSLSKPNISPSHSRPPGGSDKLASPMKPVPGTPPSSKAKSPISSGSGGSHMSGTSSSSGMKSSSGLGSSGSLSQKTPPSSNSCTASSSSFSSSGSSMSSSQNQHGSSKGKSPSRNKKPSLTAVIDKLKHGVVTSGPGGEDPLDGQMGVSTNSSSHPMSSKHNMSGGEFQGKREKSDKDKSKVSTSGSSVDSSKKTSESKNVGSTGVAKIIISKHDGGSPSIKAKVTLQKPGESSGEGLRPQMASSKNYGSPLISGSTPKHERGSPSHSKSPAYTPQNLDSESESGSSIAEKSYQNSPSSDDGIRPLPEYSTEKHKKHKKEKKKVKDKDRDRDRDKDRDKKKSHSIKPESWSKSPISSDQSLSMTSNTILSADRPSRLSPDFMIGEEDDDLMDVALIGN
Protocol: (§1) Recombinant BFP, GFP, or mCherry fusion proteins were concentrated and desalted to an appropriate protein concentration and 125 mM NaCl using Amicon Ultra centrifugal filters (30K MWCO, Millipore). Recombinant protein was added too. […] The protein solution was immediately loaded onto glass bottom 384 well plate (Cellvis P384-1.5H-N) and imaged with an Andor confocal microscope with a 150× objective. Unless indicated, images presented are of droplets settled on the glass coverslip.
(§2) Drug and small molecule concentrations used in the droplet experiments are as follows:
To analyze in vitro droplet experiments, custom Python scripts using the scikit-image package were written to identify droplets and characterize their size, shape and intensity. Droplets were segmented from average images of captured channels on various criteria: (1) an intensity threshold that was three s.d. above the mean of the image; (2) size thresholds (20 pixel minimum droplet size); and (3) a minimum circularity (circularity=4π·areaperimeter2) (circularity=4π·areaperimeter2) of 0.8 (1 being a perfect circle). After segmentation, mean intensity for each droplet was calculated while excluding pixels near the phase interface, and background-corrected by subtracting intensity of dark images of droplet formation buffer only. Droplets identified in the channel of the fluorescent protein from ten independent fields of view were quantified for each experiment. The maximum intensity of signal within the droplets was calculated for each channel, the maximum intensity in the drug channel was termed “maximum drug intensity”. To obtain the intensity of drug or dye alone in the diffuse state (termed “diffuse drug intensity”), the compound was added to droplet formation buffer at same concentration used in the droplet assay. This was then imaged on a confocal fluorescent microscope. The resulting image was processed in FIJI to obtain the fluorescent intensity of the field. To obtain the fluorescent intensity of protein droplets that bleed through in the drug channel (termed “background intensity”) protein droplets were imaged in the fluorescent channel in which the drug fluoresces and processed as above to obtain the average maximum intensity within the droplet across 10 images. The enrichment ratio was obtained by the following formula [(maximum drug intensity)−(background intensity)]/(diffuse drug intensity). The box plots show the distributions of all droplets. Each dot represents an individual droplet.

HP1α = biological target: T2, HP1α (Homo sapiens, UniProt P45973); assay: In vitro droplet assay, small molecule partitioning into HP1α condensates; format: binding
T2 construct: HP1α—full length, amino acids 1-191; 6xHis (N); made in house; host or cells: LOBSTR cells (E. coli)
T2 sequence (P45973 whole entry, the tested form may be a part): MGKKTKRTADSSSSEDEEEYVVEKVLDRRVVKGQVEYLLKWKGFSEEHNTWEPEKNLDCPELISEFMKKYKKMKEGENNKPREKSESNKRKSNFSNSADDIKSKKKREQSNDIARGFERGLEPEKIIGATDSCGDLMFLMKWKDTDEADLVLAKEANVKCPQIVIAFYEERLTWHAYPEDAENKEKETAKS
Protocol: as §1, §2
(§3) To analyze in vitro droplet experiments, custom Python scripts using the scikit-image package were written to identify droplets and characterize their size, shape and intensity. […] After segmentation, mean intensity for each droplet was calculated while excluding pixels near the phase interface, and background-corrected by subtracting intensity of dark images of droplet formation buffer only. Droplets identified in the channel of the fluorescent protein from ten independent fields of view were quantified for each experiment. The maximum intensity of signal within the droplets was calculated for each channel, the maximum intensity in the drug channel was termed “maximum drug intensity”. […]

[1] = Droplet formation assay of small molecule alone without any protein; format: physicochemical; conditions: without any protein added
Protocol: Recombinant BFP, GFP, or mCherry fusion proteins were concentrated and desalted to an appropriate protein concentration and 125 mM NaCl using Amicon Ultra centrifugal filters (30K MWCO, Millipore). […] […] The protein solution was immediately loaded onto glass bottom 384 well plate (Cellvis P384-1.5H-N) and imaged with an Andor confocal microscope with a 150× objective. Unless indicated, images presented are of droplets settled on the glass coverslip.

[2] = system: MED1 condensate at the LAC array in U2OS cells; assay: LAC binding assay, FLTX1 enrichment at tethered MED1 or HP1α; format: cell-based, human; conditions: ESR1 not expressed, 1 uM FLTX1
Protocol: Constructs were assembled by NEB HIFI cloning in pSV2 mammalian expression vector containing an SV40 promoter driving expression of a mCherry-LacI fusion protein. The intrinsically disordered region of MED1, HP1α, or the activation domain of ESR1 was fused by the c-terminus to this recombinant protein, joined by the linker sequence […] (SEQ ID NO: 16). For experiments comparing FLTX1 enrichment at the array, U20S-Lac cells were plated onto chambered coverglass (1.5 Borosilicate Glass, Nunc Lab-Tek, 155409) and transfected with either MED1 IDR or HP1α constructs with lipofectamine 3000 (Thermofisher L3000015). After 24 hours, cells were treated with either 1 uM FLTX1 or vehicle (DMF). […]
For analysis of Lac array data comparing MED1 or HP1α tethered, a region of interest was called using the signal in the Lac array (561 channel). The average fluorescent signal for FLTX1 (488 channel) was then measured in the region of interest and divided by the average fluorescence in the region of interest at the Lac array. […] For analysis of Lac array data for MED1 overexpression, enrichment was calculated by dividing the average fluorescent signal for MED1 immunofluorescence at the region of interest, defined by the ER tethered at the lac array, by MED1 immunofluorescence signal at a random nuclear region.

[3] = system: MED1, BRD4, and POL2 condensates in HCT116 colon cancer cell lines; assay: Small molecule effects on transcriptional condensates in GFP-tagged HCT116 cells; format: cell-based, human; conditions: for effect on transcriptional condensates: MED1-GFP, BRD4-GFP, POL2-GFP HCT116
Excerpt: HCT116 colon cancer cell lines endogenously tagged with MED1-GFP, BRD4-GFP, POL2-GFP, or HP1a-GFP (Mock), all forming condensates in the nucleus.

BRD4 at super-enhancers = assay: Super-enhancers versus typical enhancers, gene expression and BRD4 genomic occupancy; format: cell-based
[4] = system: MED1 genomic occupancy in HCT116 cells; assay: MED1 ChIP-seq in HCT116 cells; format: cell-based, human; conditions: JQ1 for 24 hours
[5] = system: platinated DNA at MYC locus in HCT116 cells; assay: Immunofluorescence with MYC DNA FISH after JQ1 then cisplatin; format: cell-based, human; conditions: 1 μM JQ1 24 hours, then 50 μM cisplatin 6 hours
FIB1 = biological target: T3, FIB1 (Homo sapiens, UniProt P22087); assay: In vitro droplet assay, small molecule partitioning into FIB1 condensates; format: binding; conditions: 125 mM NaCl, 10% PEG, 10 μM protein
T3 construct: FIB1—full length, amino acids 1-321; 6xHis (N); made in house; host or cells: LOBSTR cells (E. coli)
T3 sequence (P22087 whole entry, the tested form may be a part): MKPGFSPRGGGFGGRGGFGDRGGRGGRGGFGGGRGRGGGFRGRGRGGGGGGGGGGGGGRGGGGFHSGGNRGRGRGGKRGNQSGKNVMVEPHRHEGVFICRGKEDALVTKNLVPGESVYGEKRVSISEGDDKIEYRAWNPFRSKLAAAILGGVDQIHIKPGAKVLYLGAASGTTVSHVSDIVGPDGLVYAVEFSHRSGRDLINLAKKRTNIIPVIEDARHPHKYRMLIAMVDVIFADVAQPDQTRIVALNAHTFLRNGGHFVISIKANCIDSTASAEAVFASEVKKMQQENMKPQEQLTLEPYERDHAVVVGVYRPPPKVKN
Protocol: as §1, §2, §3

NPM1 = biological target: T4, NPM1 (Homo sapiens, UniProt P06748); assay: In vitro droplet assay, small molecule partitioning into NPM1 condensates; format: binding; conditions: 125 mM NaCl, 10% PEG, 10 μM protein
T4 construct: NPM1—full length, amino acids 1-294; 6xHis (N); made in house; host or cells: LOBSTR cells (E. coli)
T4 sequence (P06748 whole entry, the tested form may be a part): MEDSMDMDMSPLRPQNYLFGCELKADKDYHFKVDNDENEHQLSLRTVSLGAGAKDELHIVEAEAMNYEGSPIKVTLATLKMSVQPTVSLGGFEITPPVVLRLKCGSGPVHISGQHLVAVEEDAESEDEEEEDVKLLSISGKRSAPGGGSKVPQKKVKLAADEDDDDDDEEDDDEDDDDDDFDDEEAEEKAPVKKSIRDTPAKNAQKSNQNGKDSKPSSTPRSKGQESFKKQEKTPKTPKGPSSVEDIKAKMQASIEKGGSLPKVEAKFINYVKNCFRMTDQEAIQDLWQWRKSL
Protocol: as §1, §2, §3

MED1 condensates = biological target: T5, MED1 condensates (Homo sapiens, UniProt Q15648); assay: Determination of partitioning by spectrophotometry and quantitative phase microscopy; format: binding; conditions: uv spectroscopy of drug remaining in solution plus condensate volume estimate
T5 construct: MED1—amino acids 600-1581; 6xHis (N); made in house; host or cells: LOBSTR cells (E. coli)
T5 sequence (Q15648 600-1581): as the sequence (Q15648 600-1581) above
Excerpt: Here, an expression is derived briefly for the partition coefficient of a client molecule into a condensed phase in terms of quantities that are readily measurable experimentally. A sample composed of two coexisting phases is considered, named dilute and condensed, with volume fractions ϕdilute and […]. If a client molecule (e.g. a drug) is also present in the sample at an average concentration of ctotal, then mass conservation requires that
the ratio is estimated ctotal/cdilute from fluorescence spectroscopy measurements, as described in a subsequent section, while ϕcond, it is inferred from the lever rule (M. Rubinstein, R. H. Colby, Polymer Phyics (Oxford University Press, 2003) as follows: denoting the concentration of scaffold protein (e.g. MED1) by s, mass conservation gives stotal=sdiluteϕdilute+scondϕcond, in analogy with Eq. 1. Again using the requirement that the volume fractions of coexisting phases sum to 1, this can be rearranged to yield
where stotal and sdilute are measured spectrophotometrically from optical absorbance at 280 nm, and scond is measured from quantitative phase microscopy, using a coherence-controlled holographic microscope (Q-Phase, Telight (formerly TESCAN), Bmo, CZ) equipped with 40× dry objectives (NA=0.90). […]
where A is the measured absorbance (in Absorbance Units (AU)), I0 is the intensity of the incident light at a given wavelength, I is the transmitted intensity, L the path length through the sample, and c the concentration of the absorbing species. […] The partitioned drug was measured by using spin down assay. […] The supernatant was collected and measured the concentrations of the drug. The partitioned drug was calculated by subtracting from the total known concentration of drug added.
Quantitative phase measurements were performed using a coherence-controlled holographic microscope (Q-Phase, Telight (formerly TESCAN), Brno, CZ) equipped with 40× dry objectives (NA=0.90) as follows. […]
Q-PHASE software was used to construct compensated phase images from acquired holograms, which were subsequently analyzed in MATLAB using custom code. […]

nucleolus = conditions: references (35, 36); cited from earlier work

Compound	drug concentration in larger MED1 condensates (MED1; 20 μM (High) vs 5 μM (Low) MED1, 100 μM FLTX1)	partitioning / incorporation into MED1 droplets (MED1)	partitioning / incorporation into HP1α droplets (HP1α)	droplet formation of small molecule alone [1]	FLTX1 enrichment at MED1 condensate tethered to the LAC array [2]	effect on transcriptional condensates [3]	effect on transcriptional condensates, long exposure ([3]; long exposure (e.g., 24 hours))	MED1 condensates after JQ1 ([3]; mEGFP-MED1 tagged HCT116 cells, JQ1 for 24 hours)	effect on transcriptional condensates, short exposure ([3]; short exposure (e.g., 5 minutes))	BRD4 genomic occupancy, super-enhancers versus typical enhancers (BRD4 at super-enhancers)	sensitivity of gene expression by super-enhancers versus typical enhancers (BRD4 at super-enhancers)	MED1 ChIP-Seq at MYC after JQ1 [4]	platinated DNA at the MYC locus after JQ1 treatment [5]	partitioning into FIB1 condensates (FIB1)	partitioning into NPM1 condensates (NPM1)	partition ratio in MED1 condensates (MED1 condensates)	subcellular concentration (nucleolus)
CC/C(=C(\c1ccccc1)c1ccc(OCCN(C)c2ccc([N+](=O)[O-])c3nonc23)cc1)c1ccccc1 [FLTX1]	lower concentrations of the drug	concentrated preferentially in MED1 droplets; also recorded: incorporated into MED1 containing condensates; also recorded: incorporates into MED1 droplets	does not incorporate	diffuse fluorescent signal	concentrated FLTX1 at the site of the condensate; also recorded: concentrates in MED1 condensates in cells	–	–	–	–	–	–	–	–	–	–	–	–
Cc1sc2c(c1C)C(c1ccc(Cl)cc1)=N[C@@H](CC(=O)OC(C)(C)C)c1nnc(C)n1-2 [JQ1, (S)-tert-butyl 2-(4-(4-chlorophenyl)-2,3,9-trimethyl-6H-thieno[3,2-ƒ][1,2,4]triazolo[4,3-a][1,4]diazepin-6-yl)acetate]	–	–	–	diffuse fluorescent signal	–	reduces the number of, or eliminates	genomic release and consolidation of condensates	loss of MED1 condensates; also recorded: diminution of MED1 condensates	eviction of some condensate components	reduces BRD4 genomic occupancy in super-enhancers to a greater extent than typical enhancers	more sensitive	loss of MED1 loading	concomitant reduction in platinated DNA at the MYC oncogene; also recorded: loss of signal for platinated DNA	–	–	–	–
O=C1c2c(O)ccc(O)c2C(=O)c2c(NCCNCCO)ccc(NCCNCCO)c21 [Mitoxantrone]	–	concentrated; also recorded: immediately incorporate into MED1 droplets	–	diffuse fluorescent signal	–	global dissolution of condensates; also recorded: cause condensate dissolution	–	–	–	–	–	–	–	concentrated	concentrated	approximately 100 fold	concentrate in the nucleolus
